Reference: patent publication US8273774B2, “Phenoxypyridinylamide compounds” (AstraZeneca AB, priority 2008, dated 2012)

Molecular target: recombinant Human Phosphodiesterase B2 (PDE4B2) (Homo sapiens, UniProt Q07343)
Assay: Human Phosphodiesterase B2 Radiometric Assay
Format: biochemical
Details: 0.1 μg/mL recombinant PDE4B2; preincubated at 30 C for 30 min; [3H]cyclic AMP 8 nM, stopped after 20 min; yttrium silicate SPA beads; read-out: PDE4B2 pIC50 (converted)
Protocol: Human Phosphodiesterase B2 Radiometric Assay
The assay uses recombinant Human Phosphodiesterase B2 (PDE4B2) produced in house (PrAZL0163), stored at −20° C. This assay is based on the observation that 5′AMP, the product of the reaction catalysed by PDE4, binds preferentially to yttrium silicate SPA beads (Amersham Biosciences, UK) compared to the substrate, cAMP. Compounds at the appropriate concentration were preincubated at 30 C for 30 min with an assay buffer containing 50 mM HEPES (pH 7.5), 8.3 mM MgCl2, 1.7 mM EGTA, 0.01% (w/v) Brij®35 and 0.1 μg/mL recombinant PDE4B2. The reaction was started by the addition of [3H]cyclic AMP to give a final concentration of 8 nM, and was stopped 20 min after the addition of the substrate by the addition of yttrium silicate SPA beads containing 18 mM Zn SO4. Bound […] was measured using a Topcount NXT (Packard Bioscience, UK). pIC50 values (presented in Table 2) were determined using Xlfit3 curve fitting, using model 205.

Sequence of recombinant Human Phosphodiesterase B2 (PDE4B2) (Q07343 1-564 isoform Q07343-2): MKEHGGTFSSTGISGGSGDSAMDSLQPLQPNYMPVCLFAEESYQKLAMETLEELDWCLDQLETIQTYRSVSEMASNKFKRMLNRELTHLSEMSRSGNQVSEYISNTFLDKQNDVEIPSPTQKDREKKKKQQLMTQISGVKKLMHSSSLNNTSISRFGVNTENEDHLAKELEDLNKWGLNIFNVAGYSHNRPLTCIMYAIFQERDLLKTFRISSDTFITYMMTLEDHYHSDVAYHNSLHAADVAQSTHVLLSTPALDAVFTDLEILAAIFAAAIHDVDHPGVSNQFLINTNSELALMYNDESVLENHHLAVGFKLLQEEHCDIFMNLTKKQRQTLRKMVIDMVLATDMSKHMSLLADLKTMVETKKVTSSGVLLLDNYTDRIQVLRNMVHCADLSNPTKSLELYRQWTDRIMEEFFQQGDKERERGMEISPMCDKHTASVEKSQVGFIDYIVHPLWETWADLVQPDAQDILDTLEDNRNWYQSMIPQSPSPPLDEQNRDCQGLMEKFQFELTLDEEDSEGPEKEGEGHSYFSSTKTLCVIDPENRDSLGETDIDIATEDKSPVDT

Structure (SMILES)	IC50
Cc1cccc2nc(C(=O)N[C@H]3CC[C@@H](NC(=O)c4cc(F)cnc4Oc4cccc(-c5ccc(CN(C)CCO)cc5)c4)CC3)cn12 [Example 51, N-((1s,4s)-4-(5-fluoro-2-(4′-(((2-hydroxyethyl)(methyl)amino)methyl)biphenyl-3-yloxy)nicotinamido)cyclohexyl)-5-methylimidazo[1,2-a]pyridine-2-carboxamide]	0.1 nM
CN(C)Cc1cc(O)ccc1-c1cccc(Oc2ncc(F)cc2C(=O)N[C@H]2CC[C@@H](NC(=O)c3cccc4[nH]cnc34)CC2)c1 [Example 52, N-((1s,4s)-4-(2-(2′-((dimethylamino)methyl)-4′-hydroxybiphenyl-3-yloxy)-5-fluoronicotinamido)cyclohexyl)-1H-benzo[d]imidazole-4-carboxamide]	0.0501 nM
Cc1nc(C(=O)N[C@H]2CC[C@@H](NC(=O)c3cc(F)cnc3Oc3cccc(-c4ccc(CN5CCCOCC5)cc4)c3)CC2)cs1 [Example 55, N-((1s,4s)-4-(2-(4′-((1,4-oxazepan-4-yl)methyl)biphenyl-3-yloxy)-5-fluoronicotinamido)cyclohexyl)-2-methylthiazole-4-carboxamide]	0.1 nM
Cc1nc(C(=O)N[C@H]2CC[C@@H](NC(=O)c3cc(F)cnc3Oc3cccc(-c4ccc(CN5CCOCC5)cc4O)c3)CC2)cs1 [Example 56, N-((1s,4s)-4-(5-fluoro-2-(2′-hydroxy-4′-(morpholinomethyl)biphenyl-3-yloxy)nicotinamido)cyclohexyl)-2-methylthiazole-4-carboxamide]	0.0251 nM
Cc1nc(C(=O)N[C@H]2CC[C@@H](NC(=O)c3cc(F)cnc3Oc3cccc(-c4ccc(CN5CCNCC5)cc4O)c3)CC2)cs1 [Example 57, N-((1s,4s)-4-(5-fluoro-2-(2′-hydroxy-4′-(piperazin-1-ylmethyl)biphenyl-3-yloxy)nicotinamido)cyclohexyl)-2-methylthiazole-4-carboxamide]	0.0631 nM
O=C(N[C@H]1CC[C@@H](NC(=O)c2cc(F)cnc2Oc2cccc(-c3ccc(O)cc3CN3CCOCC3)c2)CC1)c1csc(CO)n1 [Example 58, N-((1s,4s)-4-(5-fluoro-2-(4′-hydroxy-2′-(morpholinomethyl)biphenyl-3-yloxy)nicotinamido)cyclohexyl)-2-(hydroxymethyl)thiazole-4-carboxamide]	0.0631 nM
Cc1cccc2nc(C(=O)N[C@H]3CC[C@@H](NC(=O)c4cc(F)cnc4Oc4cccc(-c5ccc(C(=O)O)cc5CN5CCOCC5)c4)CC3)cn12 [Example 59, 3′-(5-fluoro-3-((1s,4s)-4-(5-methylimidazo[1,2-a]pyridine-2-carboxamido)cyclohexylcarbamoyl)pyridin-2-yloxy)-2-(morpholinomethyl)biphenyl-4-carboxylic acid]	0.0794 nM
Cc1nc(C(=O)N[C@H]2CC[C@@H](NC(=O)c3cc(F)cnc3Oc3cccc(-c4ccc(CN5CCCN(C)CC5)cc4)c3)CC2)cs1 [Example 60, N-((1s,4s)-4-(5-fluoro-2-(4′-((4-methyl-1,4-diazepan-1-yl)methyl)biphenyl-3-yloxy)nicotinamido)cyclohexyl)-2-methylthiazole-4-carboxamide]	0.0501 nM
COCc1nc(C(=O)N[C@H]2CC[C@@H](NC(=O)c3cc(F)cnc3Oc3cccc(-c4ccc(O)cc4CN4CCOCC4)c3)CC2)cs1 [Example 63, N-((1s,4s)-4-(5-fluoro-2-(4′-hydroxy-2′-(morpholinomethyl)biphenyl-3-yloxy)nicotinamido)cyclohexyl)-2-(methoxymethyl)thiazole-4-carboxamide]	0.126 nM
Cc1cccc2nc(C(=O)N[C@H]3CC[C@@H](NC(=O)c4cc(F)cnc4Oc4cccc(-c5ccc(CN6CCCN(C)CC6)cc5)c4)CC3)cn12 [Example 64, N-((1s,4s)-4-(5-fluoro-2-(4′-((4-methyl-1,4-diazepan-1-yl)methyl)biphenyl-3-yloxy)nicotinamido)cyclohexyl)-5-methylimidazo[1,2-a]pyridine-2-carboxamide]	0.126 nM

More lines, now with the values ahead:

IC50	Structure (SMILES)
0.0631 nM	Cc1nc(C(=O)N[C@H]2CC[C@@H](NC(=O)c3cc(F)cnc3Oc3cccc(-c4ccc(CN5C[C@@H](C)N[C@@H](C)C5)cc4)c3)CC2)cs1 [Example 54, N-((1s,4s)-4-(2-(4′-(((3S,5R)-3,5-dimethylpiperazin-1-yl)methyl)biphenyl-3-yloxy)-5-fluoronicotinamido)cyclohexyl)-2-methylthiazole-4-carboxamide]
0.0251 nM	Cc1cc(C(=O)N[C@H]2CC[C@@H](NC(=O)c3cc(F)cnc3Oc3cccc(-c4ccc(CN5C[C@@H](C)N[C@@H](C)C5)cc4)c3)CC2)nn1C [Example 62, N-((1s,4s)-4-(1,5-dimethyl-1H-pyrazole-3-carboxamido)cyclohexyl)-2-(4′-(((3S,5R)-3,5-dimethylpiperazin-1-yl)methyl)biphenyl-3-yloxy)-5-fluoronicotinamide]
0.0398 nM	Cc1nc(C(=O)N[C@H]2CC[C@@H](NC(=O)c3cc(F)cnc3Oc3cccc(-c4cc(O)cc(CN5C[C@@H](C)N[C@@H](C)C5)c4)c3)CC2)cs1 [Example 65, N-((1s,4s)-4-(2-(3′-(((3R,5S)-3,5-dimethylpiperazin-1-yl)methyl)-5′-hydroxybiphenyl-3-yloxy)-5-fluoronicotinamido)cyclohexyl)-2-methylthiazole-4-carboxamide]
0.1 nM	C[C@@H]1CN(Cc2ccc(-c3cccc(Oc4ncc(F)cc4C(=O)N[C@H]4CC[C@@H](NC(=O)c5cn6cc(F)ccc6n5)CC4)c3)cc2)C[C@H](C)N1 [Example 67, N-((1s,4s)-4-(2-(4′-(((3S,5R)-3,5-dimethylpiperazin-1-yl)methyl)biphenyl-3-yloxy)-5-fluoronicotinamido)cyclohexyl)-6-fluoroimidazo[1,2-a]pyridine-2-carboxamide]
0.0251 nM	Cc1nc(C(=O)N[C@H]2CC[C@@H](NC(=O)c3cc(F)cnc3Oc3cccc(-c4ccc(O)c(CN5C[C@@H](C)N[C@@H](C)C5)c4)c3)CC2)cs1 [Example 68, N-((1s,4s)-4-(2-(3′-(((3R,5S)-3,5-dimethylpiperazin-1-yl)methyl)-4′-hydroxybiphenyl-3-yloxy)-5-fluoronicotinamido)cyclohexyl)-2-methylthiazole-4-carboxamide]
0.398 nM	Cc1nc(C(=O)N[C@H]2CC[C@@H](NC(=O)c3cc(F)cnc3Oc3cccc(-c4cccc(CN5C[C@@H](C)N[C@@H](C)C5)c4O)c3)CC2)cs1 [Example 69, N-((1s,4s)-4-(2-(3′-(((3R,5S)-3,5-dimethylpiperazin-1-yl)methyl)-2′-hydroxybiphenyl-3-yloxy)-5-fluoronicotinamido)cyclohexyl)-2-methylthiazole-4-carboxamide]
0.0794 nM	C[C@@H]1CN(Cc2ccc(-c3cccc(Oc4ncc(F)cc4C(=O)N[C@H]4CC[C@@H](NC(=O)c5csc(CO)n5)CC4)c3)cc2)C[C@H](C)N1 [Example 70, N-((1s,4s)-4-(2-(4′-(((3S,5R)-3,5-dimethylpiperazin-1-yl)methyl)biphenyl-3-yloxy)-5-fluoronicotinamido)cyclohexyl)-2-(hydroxymethyl)thiazole-4-carboxamide]
0.0251 nM	C[C@@H]1CN(Cc2ccc(-c3cccc(Oc4ncc(F)cc4C(=O)N[C@H]4CC[C@@H](NC(=O)c5cc6ccccn6n5)CC4)c3)cc2)C[C@H](C)N1 [Example 71, N-((1s,4s)-4-(2-(4′-(((3S,5R)-3,5-dimethylpiperazin-1-yl)methyl)biphenyl-3-yloxy)-5-fluoronicotinamido)cyclohexyl)pyrazolo[1,5-a]pyridine-2-carboxamide]
